Laboratory results: ChEMBL document CHEMBL1201862, “PubChem BioAssay data set” (2004)
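Dose response: 5 concentrations. Exposure: 48 h. Format: 96-well plates. Endpoint: linear interpolation; highest concentration if not reached. GI50: concentration for 50% inhibition of growth.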 Calls of active or inactive are those of the source. Rule as the data show it: active = GI50 up to about 1.1 µM and inactive = higher.

How the values were obtained:
Assay in all cases: growth of human tumour cells (NCI), 48 h
A549 = test system: A549
BT-549 = test system: BT-549
CAKI-1 = test system: CAKI-1
COLO 205 = test system: COLO 205
DU-145 = test system: DU-145
HL-60 = test system: HL-60
HOP-62 = test system: HOP-62
KM12 = test system: KM12
MCF7 = test system: MCF7
MOLT-4 = test system: MOLT-4
NCI-H226 = test system: NCI-H226
NCI-H23 = test system: NCI-H23
OVCAR-8 = test system: OVCAR-8
PC-3 = test system: PC-3
RPMI-8226 = test system: RPMI-8226
SF-268 = test system: SF-268
SNB-19 = test system: SNB-19
SW-620 = test system: SW-620
UACC-257 = test system: UACC-257
UACC-62 = test system: UACC-62

Compound | GI50 (A549) | GI50 (BT-549) | GI50 (CAKI-1) | GI50 (COLO 205) | GI50 (DU-145) | GI50 (HL-60) | GI50 (HOP-62) | GI50 (KM12) | GI50 (MCF7) | GI50 (MOLT-4) | GI50 (NCI-H226) | GI50 (NCI-H23) | GI50 (OVCAR-8) | GI50 (PC-3) | GI50 (RPMI-8226) | GI50 (SF-268) | GI50 (SNB-19) | GI50 (SW-620) | GI50 (UACC-257) | GI50 (UACC-62)
C/C(=N\O)c1ccc(Nc2c3ccccc3nc3occc23)cc1 | 0.263 µM (active) | 0.366 µM (active) | 0.231 µM (active) | 0.156 µM (active) | 1.05 µM (active) | 0.154 µM (active) | 0.436 µM (active) | 0.231 µM (active) | 0.18 µM (active) | 0.169 µM (active) | 2.99 µM (inactive) | 1.36 µM (inactive) | 0.531 µM (active) | 0.327 µM (active) | 0.207 µM (active) | 0.514 µM (active) | 0.603 µM (active) | 0.21 µM (active) | 7.26 µM (inactive) | 0.228 µM (active)
COc1ccc(C2SC(=N)Nc3c2c(C)nn3C(=O)c2ccncc2)cc1OC (stereo not given) | > 10 µM (inactive) | > 10 µM (inactive) | > 10 µM (inactive) | > 10 µM (inactive) | > 10 µM (inactive) | > 10 µM (inactive) | > 10 µM (inactive) | > 10 µM (inactive) | > 10 µM (inactive) | > 10 µM (inactive) | > 10 µM (inactive) | > 10 µM (inactive) | > 10 µM (inactive) | > 10 µM (inactive) | > 10 µM (inactive) | > 10 µM (inactive) | > 10 µM (inactive) | > 10 µM (inactive) | > 10 µM (inactive) | > 10 µM (inactive)
CCCNC(=S)N/N=C(\C)c1ccc(S(=O)(=O)N(C)c2ccccc2)cc1 | 46.3 µM (inactive) | > 100 µM (inactive) | 24.2 µM (inactive) | > 100 µM (inactive) | > 78.5 µM (inactive) | > 100 µM (inactive) | 6.34 µM (inactive) | > 100 µM (inactive) | 57 µM (inactive) | > 100 µM (inactive) | 29.1 µM (inactive) | > 60.8 µM (inactive) | 24.5 µM (inactive) | > 100 µM (inactive) | > 31.6 µM (inactive) | 7.06 µM (inactive) | 39.4 µM (inactive) | > 100 µM (inactive) | > 100 µM (inactive) | > 100 µM (inactive)
O=C1OCN(c2ccccc2)C12CCN(Cc1ccccc1)CC2 | 41.2 µM (inactive) | 67.1 µM (inactive) | 45 µM (inactive) | 18.8 µM (inactive) | 66.4 µM (inactive) | 27.8 µM (inactive) | 49.3 µM (inactive) | 23.7 µM (inactive) | 32.6 µM (inactive) | 13.6 µM (inactive) | > 100 µM (inactive) | 53.5 µM (inactive) | 39.4 µM (inactive) | 24.7 µM (inactive) | 23.7 µM (inactive) | 43 µM (inactive) | 67 µM (inactive) | 18 µM (inactive) | 16.7 µM (inactive) | 18.6 µM (inactive)
COc1cc2c(cc1OC)[C@H]1CN3CCC[C@H]3C=C1c1ccc(OC)c(O)c1-2 | 0.000598 µM (active) | 0.0195 µM (active) | < 0.0001 µM (active) | 0.0006 µM (active) | 0.00342 µM (active) | 0.000487 µM (active) | < 0.0001 µM (active) | 0.000519 µM (active) | 0.00404 µM (active) | 0.000486 µM (active) | 0.000736 µM (active) | 0.000553 µM (active) | 0.000557 µM (active) | 0.00359 µM (active) | 0.000577 µM (active) | 0.000819 µM (active) | < 0.0001 µM (active) | 0.000499 µM (active) | 0.000681 µM (active) | < 0.0001 µM (active)
CN1c2c(O)nc(N)nc2NCC1CCNc1ccc(C(=O)NC(CCC(=O)O)C(=O)O)cc1 (stereo not given) | 242 µM (inactive) | 1440 µM (inactive) | 328 µM (inactive) | 1330 µM (inactive) | 1330 µM (inactive) | 48.1 µM (inactive) | 467 µM (inactive) | 916 µM (inactive) | 324 µM (inactive) | 33 µM (inactive) | 807 µM (inactive) | 1640 µM (inactive) | 1160 µM (inactive) | 7.16 µM (inactive) | 141 µM (inactive) | 1110 µM (inactive) | 1820 µM (inactive) | 52.4 µM (inactive) | 1030 µM (inactive) | 133 µM (inactive)
COC(=O)c1cnc(Cl)c([N+](=O)[O-])c1 | 20.6 µM (inactive) | 17.9 µM (inactive) | 11.2 µM (inactive) | 3.54 µM (inactive) | 9.57 µM (inactive) | 2.42 µM (inactive) | 19.1 µM (inactive) | 17.4 µM (inactive) | 2.12 µM (inactive) | 2.42 µM (inactive) | 16.9 µM (inactive) | 17.3 µM (inactive) | 2.03 µM (inactive) | 10.7 µM (inactive) | 2.52 µM (inactive) | 2.64 µM (inactive) | 18.5 µM (inactive) | 2.03 µM (inactive) | 7.41 µM (inactive) | 16.8 µM (inactive)
CC(=O)O[C@H]1C(=O)[C@@]2(C)[C@H]([C@H](OC(=O)c3ccncc3)[C@]3(O)C[C@H](OC(=O)[C@H](O)[C@@H](NC(=O)c4ccccc4)c4ccccc4)C(C)=C1C3(C)C)[C@]1(OC(C)=O)CO[C@@H]1C[C@@H]2O | 18 µM (inactive) | 14.5 µM (inactive) | > 25 µM (inactive) | 2.08 µM (inactive) | 11.6 µM (inactive) | 0.471 µM (active) | > 12.4 µM (inactive) | 2.61 µM (inactive) | 0.918 µM (active) | 1.39 µM (inactive) | 16.1 µM (inactive) | 12.6 µM (inactive) | 8.53 µM (inactive) | 6.56 µM (inactive) | 0.881 µM (active) | > 11.6 µM (inactive) | 4.51 µM (inactive) | 1.56 µM (inactive) | 8.3 µM (inactive) | 2.66 µM (inactive)
N=C(N)N/N=C/c1c(-c2ccccc2[N+](=O)[O-])nc2sccn12 | 34.1 µM (inactive) | 30.7 µM (inactive) | 64.9 µM (inactive) | 15.8 µM (inactive) | 48.2 µM (inactive) | 16.6 µM (inactive) | 25.7 µM (inactive) | 20.4 µM (inactive) | 19.1 µM (inactive) | 17.7 µM (inactive) | 17.4 µM (inactive) | 29.2 µM (inactive) | 32.2 µM (inactive) | 24.3 µM (inactive) | 19.5 µM (inactive) | 28.8 µM (inactive) | 23.8 µM (inactive) | 18.4 µM (inactive) | 18.3 µM (inactive) | 17.5 µM (inactive)
Cc1cccc(C)c1NC(=O)C(=O)C(c1ccccc1Cl)S(=O)(=O)Cc1ccccc1Cl (stereo not given) | > 100 µM (inactive) | 35.7 µM (inactive) | 39.3 µM (inactive) | > 100 µM (inactive) | > 100 µM (inactive) | 0.236 µM (active) | 18 µM (inactive) | > 100 µM (inactive) | > 100 µM (inactive) | > 100 µM (inactive) | > 100 µM (inactive) | 34.5 µM (inactive) | > 37.8 µM (inactive) | > 100 µM (inactive) | > 100 µM (inactive) | 22.9 µM (inactive) | 41.5 µM (inactive) | > 100 µM (inactive) | > 100 µM (inactive) | 31.7 µM (inactive)
O=[N+]([O-])C[C@@]12O[C@]3(O)C4C5CC(C6C5C3C61)C42 (stereo not given in full) | > 100 µM (inactive) | > 100 µM (inactive) | > 100 µM (inactive) | > 100 µM (inactive) | > 100 µM (inactive) | > 100 µM (inactive) | > 100 µM (inactive) | > 100 µM (inactive) | > 100 µM (inactive) | > 100 µM (inactive) | > 100 µM (inactive) | > 100 µM (inactive) | > 100 µM (inactive) | > 100 µM (inactive) | > 100 µM (inactive) | > 100 µM (inactive) | > 100 µM (inactive) | > 100 µM (inactive) | > 100 µM (inactive) | > 100 µM (inactive)
CCCCC(Sc1cc(Cl)c(C)cc1S(=O)(=O)Nc1nc(N)n[nH]1)C(=O)OC (stereo not given) | > 10 µM (inactive) | > 10 µM (inactive) | > 10 µM (inactive) | > 10 µM (inactive) | > 10 µM (inactive) | > 10 µM (inactive) | > 10 µM (inactive) | > 10 µM (inactive) | > 10 µM (inactive) | > 10 µM (inactive) | > 10 µM (inactive) | > 10 µM (inactive) | > 10 µM (inactive) | > 10 µM (inactive) | > 10 µM (inactive) | > 10 µM (inactive) | > 10 µM (inactive) | > 10 µM (inactive) | > 10 µM (inactive) | > 10 µM (inactive)
C/C=C1/CN2CCC34C5=CC(=O)C(c6cc7c(cc6OC)N(C)C6=C(C(=O)OC)CC8(CC)CCCN9CCC67C98)=CC5=NC23CCC1C4C(=O)OC (stereo not given) | 16.2 µM (inactive) | 16 µM (inactive) | 9.51 µM (inactive) | 8.61 µM (inactive) | 18.7 µM (inactive) | 1.93 µM (inactive) | 16.8 µM (inactive) | 16.4 µM (inactive) | 9.14 µM (inactive) | 2.45 µM (inactive) | 20.4 µM (inactive) | 14.8 µM (inactive) | 14.9 µM (inactive) | 13 µM (inactive) | 4.04 µM (inactive) | 18 µM (inactive) | 16 µM (inactive) | 8.73 µM (inactive) | 14 µM (inactive) | 16.6 µM (inactive)
